This is an account of results in PMC12473014, “Granzyme B PET Imaging Enables Early Assessment of Immunotherapy Response in a Humanized Melanoma Mouse Model” (Pharmaceuticals, 2025).

For data set [1], the target named is T1, active human GZB (Homo sapiens, UniProt P10144). The experiment in a line: Fluorometric human GZB enzymatic inhibition assay (ab157403). The class given is biochemical. Further details: Each dilution was combined with 0.1 µg/µL of active GZB protein (ab285779); purchased ab285779. As to conditions: 0.1 µg/µL active GZB, 5000 to 0.00002048 nM, 50 µL, duplicate, kinetic mode after 90 min at 27 °C, CI: 2.95–5.98, read-out: inhibition constant (Ki). The protocol:
(§1) NOTA-CYT-200 was synthesized (CytoSite Biopharma, Sudbury, MA, USA) with a high chemical purity (>95%) and characterized using mass spectrometry. We performed a fluorometric human GZB activity assay (ab157403) to determine the inhibitor constant (Ki) of NOTA-CYT-200 for active human GZB enzyme activity in vitro. NOTA-CYT-200 was serially diluted with GZB assay buffer, starting from 5000 to 0.00002048 nanomolar. Each dilution was combined with 0.1 µg/µL of active GZB protein (ab285779) and the provided fluorophore. Each well contained a total volume of 50 µL, and all the samples were tested in duplicate using a microplate reader in kinetic mode (BioTek Cytation5, Winooski, VT, USA) after 90 min of incubation at 27 °C. The in vivo specificity of NOTA-CYT-200 labeled with 68gallium (^68Ga-NOTA-CYT-200) for the active human GZB protein was evaluated in non-tumor-bearing naive NSG mice (n = 8) following a subcutaneous injection of 80 µL of Matrigel alone (Corning™ Matrigel™ Membrane Matrix) or 65 µL of Matrigel containing 15 µL of active human GZB protein (0.05 µg/µL, totaling 0.75 µg GZB) into each animal’s shoulder. […] The uptake of ^68Ga-NOTA-CYT-200, measured as standard uptake values (SUVs) within the implanted regions, was assessed using the VivoQuant™ software, version 4.0 (InVicro, Needham, MA, USA). […]

For data set [2], the target named is T1, active human GZB. The format is in vivo. As to conditions: for mean TBR: mean ± SEM. The protocol: (§2) Human melanoma G361 (ATCC®) cells were cultured in McCoy’s Medium (Thermo-Fisher, Waltham, MA, USA) supplemented with 10% fetal bovine serum (Thermo-Fisher) and 1% penicillin–streptomycin (Thermo-Fisher) at 37 °C with 5% CO2. The mice were then subcutaneously (s.c.) implanted with 2 × 10^6 G361 cells suspended in Matrigel and 100 µL of phosphate-buffered saline (Sigma-Aldrich, St. […] To estimate the tumor volume, both the longest and shortest perpendicular diameters were measured. These measurements were then combined using a standard method commonly employed in preclinical studies to approximate the tumor volume, providing a reliable estimate of the three-dimensional tumor size. Four days after tumor implantation, the tumors measured 336 ± 38 mm^3. The mice were then randomly assigned to receive three doses at three-day intervals of either 200 µg/100 µg of an anti-PD1/CTLA4 combination therapy (combination group, n = 15), 200 µg of anti-PD1 as a monotherapy (monotherapy group, n = 15), or a vehicle solution (controls, n = 12) via an intraperitoneal (i.p.) injection. A subset of mice (combination: n = 8, monotherapy: n = 9, controls: n = 6) underwent PET/CT imaging before treatment (baseline), as well as 4 days (timepoint 2), 1 week (timepoint 3), and 2 weeks (timepoint 4) after the treatment began (Figure 7). ^68Gallium was obtained by eluting a ^68Ga/^68Ge generator (Eckert and Ziegler, Berlin, Germany) with 0.1 molar HCl. A total of 2 mL of eluted ^68gallium was mixed with 100 µL of NOTA-CYT-200, stored in a stock solution of 1 mg/mL of metal-free water (OmniTrace Ultra, Millipore, Burlington, MA, USA) and two molar HEPES buffer to adjust the pH to 3.5–4.0. The reaction was incubated at 95 °C for 10 min. The mixture was then adjusted to a pH of 7.0 using sodium hydroxide (NaOH) before being administered intravenously via the tail vein. A total of 3.96 MBq ± 0.81 of ^68Ga-NOTA-CYT-200 was injected 60 ± 5 min prior to PET/CT acquisition. The PET/CT images were acquired in static mode using a small animal Argus PET/CT scanner (Sedecal, Madrid, Spain) in two bed positions over 20 min. The PET images were reconstructed using (2 iterations and 16 subsets) 2D-OSEM and corrected for randoms and scatter. Post-acquisition, the PET/CT images were analyzed by two blinded investigators using the VivoQuant™ software, version 4.0 (InVicro). Standard uptake values (SUVs) for the tumor, liver, and colon were normalized to the blood pool activity measured by drawing a region of interest around the left ventricle of the heart, yielding target-to-background ratios (TBR for tumor, LBR for liver, and CBR for colon). This normalization accounts for the nonspecific background signal and enables a comparison of the uptake across the groups and imaging timepoints. Prism (version 9.2; GraphPad) was used to perform quantitative data analyses. The data are presented as the mean ± SEM. The means of the two groups were compared using unpaired Student’s t-tests when appropriate.

The test system of a further data set is active human GZB protein. Put plainly: PET uptake in subcutaneous Matrigel implants with or without active GZB (in vivo specificity). Particulars: n = 8, SUV normalized to blood pool, 1 h after i.v. 4.39 MBq, mean ± SEM. The protocol: as §1
The target in data set [3] is T1, active human GZB. The experiment in a line: PET/CT liver uptake (LBR) in humanized NSG mice with G361 melanoma. The format is in vivo. Particulars: for liver-to-blood ratio (LBR): n = 8, mean ± SEM. The method, then:
as §2

The next data set is described as follows: in vivo. Details: species or system NSG mice. Particulars: mouse; for tissue uptake at 1 h: NSG, iv, total radioactivity. The protocol:
The ^68Ga-NOTA-CYT-200 biodistribution was evaluated for each treatment group four days after the initial dose. Major organs, such as the tumor, heart, lungs, liver, spleen, stomach, pancreas, intestines, kidneys, muscles, bones, skin, and brain from each mouse, were excised exactly one hour after the i.v. administration of 52.83 µCi ± 0.87 (controls, n = 3), 41.83 µCi ± 5.93 (mono, n = 4), or 34.65 µCi ± 3.82 (combination, n = 4) ^68Ga-NOTA-CYT-200. Each organ was weighed individually before measuring the activity with an automatic gamma counter (PerkinElmer Wallac Wizard 2480, Waltham, MA, USA).

Data set [4] has as its target T1, active human GZB. The experiment in a line: PET/CT intestinal/colon uptake (CBR) in humanized NSG mice with G361 melanoma. As to conditions: mean ± SEM. The class given is in vivo. The protocol: as §2

Structures are written as SMILES. Like-named read-outs stand apart in the source and are kept apart here.

T1 sequence (P10144 21-247): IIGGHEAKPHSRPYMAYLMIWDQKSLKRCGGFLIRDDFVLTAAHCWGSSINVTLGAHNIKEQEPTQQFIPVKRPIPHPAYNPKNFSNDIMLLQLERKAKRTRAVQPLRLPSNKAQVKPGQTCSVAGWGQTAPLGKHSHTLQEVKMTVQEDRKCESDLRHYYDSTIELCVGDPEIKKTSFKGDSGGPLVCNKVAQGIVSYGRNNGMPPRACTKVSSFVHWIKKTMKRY

Usually Ki stands for the equilibrium dissociation constant of an inhibitor or competing ligand from its target. As to `CC[C@H](C)[C@H](NC(=O)CNC(=O)CNC(=O)[C@H](CCC(=O)O)NC(=O)Cc1ccc(CC2CN(CC(=O)O)CCN(CC(=O)O)CCN2CC(=O)O)cc1)C(=O)N[C@H]1CCc2cccc3c2N(C1=O)[C@H](C(=O)N[C@H]1CC(=O)OC1O)C3` (stereo partly shown) [NOTA-CYT-200], the Ki on active human GZB [1] came out at 4.2 nM.
Usually tissue uptake stands for the share of the injected amount in each gram of the tissue. For `CC[C@H](C)[C@H](NC(=O)CNC(=O)CNC(=O)[C@H](CCC(=O)O)NC(=O)Cc1ccc(CC2CN(CC(=O)O)CCN(CC(=O)O)CCN2CC(=O)O)cc1)C(=O)N[C@H]1CCc2cccc3c2N(C1=O)[C@H](C(=O)N[C@H]1CC(=O)OC1O)C3` (stereo partly shown) [^68Ga-NOTA-CYT-200, metal not drawn], the “mean TBR” value on active human GZB [2] (baseline, combination (anti-PD1/CTLA4), n = 8) amounted to 1.47 ± 0.2; at active human GZB [2] (baseline, monotherapy (anti-PD1), n = 9), 1.25 ± 0.17; on active human GZB [2] (day 4 after treatment start, combination (anti-PD1/CTLA4), n = 8, p < 0.0001 vs controls, p = 0.027 vs monotherapy), 3.88 ± 0.47; on active human GZB [2] (day 4 after treatment start, controls (vehicle), n = 6) it was 1.15 ± 0.13; on active human GZB [2] (day 4 after treatment start, monotherapy (anti-PD1), n = 9, p = 0.0005 vs controls), 2.84 ± 0.3; on active human GZB [2] (day 7, combination (anti-PD1/CTLA4), n = 8, p = 0.0052 vs monotherapy, p = 0.0003 vs controls) it was 3.5 ± 0.48. For the same compound, the “mean TBR” value on active human GZB [2] (day 7, controls (vehicle), n = 6) is 1.69 ± 0.2; at active human GZB [2] (day 7, monotherapy (anti-PD1), n = 9, p = 0.59 vs controls), 2.14 ± 0.11; on active human GZB [2] (day 14, combination (anti-PD1/CTLA4), n = 8, p = 0.01 vs monotherapy, p = 0.05 vs controls) it was 3.05 ± 0.43; on active human GZB [2] (day 14, controls (vehicle), n = 6), 1.97 ± 0.28; at active human GZB [2] (day 14, monotherapy (anti-PD1), n = 9, p = 0.88 vs controls) it was 1.75 ± 0.15. Besides, the “off-target binding in tumors of the control group” value at active human GZB [2] (control group (vehicle)) is “some off-target binding”. The “highest TBR on day 4 or day 7” value came out at 1.75 ± 0.39 at active human GZB [2] (controls, n = 6); 2.73 ± 0.88 at active human GZB [2] (treatment non-responders (TNRs), n = 6, p = 0.175 vs controls); 4.28 ± 1.20 at active human GZB [2] (treatment responders (TRs), n = 3, p = 0.0002 vs controls, p = 0.0109 vs TNRs). The “TBR, responder analysis” value on active human GZB [2] (day 4, treatment non-responders (TNRs), n = 6, p = 0.02 vs controls) turned out to be 2.7 ± 0.9; at active human GZB [2] (day 4, treatment responders (TRs), n = 3, p < 0.0001 vs controls) it was 4.0 ± 1.2. Also, the “inhibition of the inflammatory response to immunotherapy by tracer injection” value on active human GZB [2] (in vivo) is reported as “did not observe any obvious inhibition of the inflammatory response to immunotherapy”. Further, the “radiotracer uptake in implant” value is on record as 6.18 ± 2.92 with active human GZB protein (Matrigel containing active GZB protein (0.75 µg), p = 0.0045 vs Matrigel without protein) and 2.48 ± 1.01 with active human GZB protein (Matrigel without the protein). Besides, the “liver-to-blood ratio (LBR)” value is on record as 2.98 ± 0.34 on active human GZB [3] (baseline, combination); 6.93 ± 1.04 at active human GZB [3] (day 4, combination, p < 0.0001 vs baseline); 7.16 ± 1.03 at active human GZB [3] (day 7, combination, p < 0.0001 vs baseline); 3.52 ± 0.27 on active human GZB [3] (day 14, combination, p = 0.91 vs baseline, p = 0.0004 and 0.0001 vs days 4 and 7). The “LBR change versus baseline” value on active human GZB [3] (day 4, monotherapy, n = 9, p = 0.023) is on record as “significant LBR increase on day 4 versus baseline”; on active human GZB [3] (days 7 and 14, monotherapy, n = 9, p = 0.93 and p = 0.71), “remained comparable to baseline”; at active human GZB [3] (post-treatment timepoints, controls, n = 6, p 0.43 to 0.71) it was “none of the post-treatment LBR values were significantly different from baseline”. In addition, the tissue uptake at 1 h in the data set “in vivo” (41.83 uCi, kidney uptake) was 1.47 ± 0.37 %ID/g; in “in vivo” (41.83 uCi, tumor uptake), 0.25 ± 0.06 %ID/g; in “in vivo” (52.83 uCi, intestinal uptake), 0.17 ± 0.13 %ID/g; in “in vivo” (52.83 uCi, kidney uptake) it was 1.32 ± 0.84 %ID/g; in the data set “in vivo” (52.83 uCi, tumor uptake), 0.12 ± 0.03 %ID/g. The “main organ of tracer elimination” value in “in vivo” is “kidney as the main organ responsible for tracer elimination”. The “intestinal/colon-to-blood ratio (CBR)” value worked out at 3.5 ± 0.62 at active human GZB [4] (baseline, combination, n = 8); 2.11 ± 0.56 at active human GZB [4] (baseline, controls, n = 6); 2.68 ± 0.43 at active human GZB [4] (baseline, monotherapy, n = 9); 6.81 ± 1.21 on active human GZB [4] (day 4, combination, n = 8, p = 0.029 vs baseline); 5.41 ± 0.98 on active human GZB [4] (day 4, monotherapy, n = 9, p = 0.07 vs baseline); 6.21 ± 1.23 at active human GZB [4] (day 7, combination, n = 8, p = 0.96 vs baseline). Besides, the “intestinal/colon-to-blood ratio (CBR)” value was 3.75 ± 0.57 on active human GZB [4] (day 7, monotherapy, n = 9, p = 0.8 vs baseline); 4.09 ± 0.97 on active human GZB [4] (day 14, combination, n = 8, p = 0.99 vs baseline); 2.25 ± 0.36 on active human GZB [4] (day 14, monotherapy, n = 9, p = 0.99 vs baseline).
